PubChem BioAssay (NCI)
Values joined by “and” are separate entries in the source; they are usually repeats but may differ in a detail not shown here. Equal values may be shown once.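 48-hour exposure; five concentrations; linearly interpolated endpoints. The concentration for 50% growth inhibition is given as GI50. Definition used: TGI = concentration required for complete inhibition of growth.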

Columns and labels:
Test in all cases: NCI-60 cell line screen, 48 h
[1] = tested on: RXF-631 renal
[2] = tested on: MDA-MB-435
[3] = tested on: MDA-MB-231 breast
[4] = tested on: PC-3 prostate
[5] = tested on: MDA-N

SMILES	TGI [1]	GI50 [2]	TGI [2]	GI50 [3]	TGI [3]	GI50 [4]	TGI [4]	GI50 [5]	TGI [5]
CC1=C(C(=O)Nc2ccccc2C)C(c2ccccc2C)C(C(=O)Nc2ccccc2C)=C(C)N1	> 100 µM								
COC(=O)C1=C(c2ccc(Cl)cc2)C(O)N=C(NN)N1 (stereo not given)	> 100 µM								
O=C1NN=C(c2ccc([N+](=O)[O-])cc2)C1n1nc(-c2ccccc2)c2ccccc2c1=O (stereo not given)	> 100 µM								
Cc1ccc(-c2c3c(N)c4c(nc3nc3c2c(C)nn3-c2ccccc2)CCC4)cc1		17.1 µM	34.2 µM	1.85 µM	3.98 µM	5.07 µM	20.9 µM		
O=C1C=C(OCCCl)C(=O)c2c(O)ccc(O)c21		0.157 µM	0.389 µM and 0.294 µM	3.29 µM	3.27 µM and 8.96 µM	2.67 µM	4.32 µM and 10.1 µM	0.236 µM	0.29 µM and 0.539 µM
COc1cc2nncc(SCc3ccc(Cl)c(Cl)c3)c2cc1OC	> 100 µM		> 100 µM		> 100 µM		> 100 µM		> 100 µM
Nc1ccccc1C#C/C=C\C#Cc1ccccc1F		2.05 µM	4.44 µM	10.1 µM	25.4 µM	6.8 µM	> 100 µM		
CN(C)c1ncnc2c1ccn2C1OC(CO)C(O)C1O (stereo not given)		2.55 µM	> 29.1 µM	1.82 µM	5.96 µM	0.477 µM	11.5 µM		
NCCSC(C[N+](=O)[O-])c1ccccc1Cl (stereo not given)		1.87 µM	5.42 µM	12 µM	25.8 µM	4.19 µM	> 32.7 µM		
CC(C)=CCc1cc(C2COc3cc4c(c(O)c3C2=O)C=CC(C)(C)O4)c(O)cc1O (stereo not given)			33.4 µM		27.5 µM		24.9 µM		27.5 µM
O=c1[nH]nc(-c2ccccc2)c2c(-c3ccccc3)onc12				17.7 µM	> 100 µM	2.12 µM	> 100 µM		
COc1cc2c3cc1Oc1c(OC)c(OC)cc4c1C(Cc1ccc(cc1)Oc1cc(ccc1O)CC3N(C)CC2)N(C)CC4 (stereo not given)			31.9 µM		24.5 µM		28.4 µM		17 µM
CCc1c2c(nc3ccc(OCc4ccc(B5OC(C)(C)C(C)(C)O5)cc4)cc13)-c1cc3c(c(=O)n1C2)COC(=O)[C@]3(O)CC		0.101 µM	> 100 µM	1.1 µM	> 100 µM	0.146 µM	> 100 µM		
CC1CC(=O)c2c(ccc3c2C(=O)c2cccc(O)c2C3=O)C1 (stereo not given)	29.8 µM								
CN(C)N=Nc1nn(C(=O)Nc2ccc(Cc3ccccc3)cc2)c2ccccc12			> 100 µM	1.37 µM	> 100 µM	4.65 µM	> 100 µM		
Cc1ccc([N+](=O)[O-])c2c(NCCC[N+](C)(C)[O-])ccnc12			> 100 µM		> 100 µM		> 100 µM		> 100 µM
COc1ccc(C=C2C(=O)NC(=O)NC2=O)cc1OCc1ccccc1		20.2 µg/mL	56.1 µg/mL	31.4 µg/mL		46.7 µg/mL		14.8 µg/mL	32.7 µg/mL

SMILES	TGI [1]	GI50 [2]	TGI [2]	GI50 [3]	TGI [3]	GI50 [4]	TGI [4]	GI50 [5]	TGI [5]
NS(=O)(=O)c1ccc(NC(=O)c2cccc3c(Nc4ccc(S(N)(=O)=O)cc4)c4ccccc4nc23)cc1	11.1 µM								
C=C1C(=O)O[C@H]2[C@H]1CC/C(CNC(=O)/C=C/c1ccc(Cl)cc1Cl)=C\CC[C@@]1(C)O[C@@H]21		0.444 µM	1.74 µM	1.35 µM	3.18 µM	1.42 µM	4.4 µM		
COc1cc(/C=C\c2ccc(Cl)cc2)cc(OC)c1OC	> 100 µM								
N#CC(C(=O)CCC(=O)Nc1ccc(Cl)c(Cl)c1)c1ccc(Cl)cc1 (stereo not given)	> 100 µM								
O=C1NC(SCc2ccc(F)cc2)=N/C1=C/c1cccc(OCc2ccc(Cl)cc2)c1		> 100 µM	> 100 µM	24.6 µM	> 100 µM	> 100 µM	> 100 µM		
O=C(NC1C=Nc2ccccc2NC1=O)c1ccccc1Cl (stereo not given)	> 100 µM								
O=C(CN1C(=O)S/C(=C\C(Cl)=C\c2ccccc2)C1=O)NCCCn1ccnc1		1.99 µM	4.19 µM			2.03 µM	5.74 µM		
COC1C(O)C(C)OC(O[C@@H]2C[C@H]3CC[C@@H]4[C@H](CC[C@]5(C)[C@@H](C6=CC(=O)OC6)CC[C@]45O)[C@@]3(C)[C@H](O)C2)C1O (stereo not given in full)			0.379 µM		> 100 µM				0.0838 µM
COC1OC(C(C)O)C2OC(C)(C)OC12 (stereo not given)			> 100 µM		> 100 µM		> 100 µM		> 100 µM
Clc1ccc(/C=C/c2nc(Cl)c(-c3ccc(Cl)cc3)c(Cl)n2)cc1			> 100 µM		> 100 µM		> 100 µM		> 100 µM
O=C(Cn1c2ccccc2c2ccncc21)N/N=C\c1ccc2ccccc2c1		17.1 µM	63.3 µM	14.5 µM	32.9 µM	19 µM	> 100 µM		
COc1cc(-c2oc3c(OC)c(O)cc(O)c3c(=O)c2OC)ccc1O			52.3 µM		> 100 µM		> 74.9 µM		59.5 µM
OC1c2ccccc2C2C(O)c3ccccc3C12 (stereo not given)	> 100 µM								
Cc1cn(Cc2ccccc2CCl)c(=O)n(Cc2ccccc2CCl)c1=O		1.97 µM	4.07 µM	1.86 µM	3.57 µM	1.83 µM	3.91 µM		
COC(=O)c1nc(N)nc(C(=O)OC)c1C(=O)c1ccccc1	> 100 µM								
O=S(=O)(N/N=C/c1ccc(Cl)cc1Cl)c1ccccc1	> 100 µM								
Cn1ncnc1C1c2n[nH]c(=O)c3cc(F)cc(c23)NC1c1ccc(F)cc1 (stereo not given)		> 100 µM	> 100 µM	> 100 µM	> 100 µM	> 100 µM	> 100 µM		
